Results: patent publication US10994016B2, “Graphene oxide mediated cellular delivery of gadolinium-labeled molecules” (Northwestern University, priority 2015, dated 2021)
Like-named read-outs stand apart in the source and are kept apart here.

Experiments:
HeLa cells [1] = assay: Cell MR imaging of Magnevist-labeled cells in agarose phantoms (6-well labeling, Gd content by ICP-MS, 7 T); assay type: cell-based; conditions: for Labeling achieved in the imaging study: after centrifugation; for Sensitivity for labeled cells on T1-weighted MRI: 7T
Method: HeLa cells were labeled by Magnevist with and without 150 nm GO co-incubation in 6-well plates. 2 plates seeded at 300,000 cells per well were needed to produce a sufficient number of cells for imaging. For the condition of GO co-incubation, 4500 μL of Magnevist-GO mixture was prepared at a concentration of 93.3 mM Magnevist and 27 μg/mL GO. The mixture was allowed to adsorb for at least 15 minutes. 375 μL of the Magnevist-GO mixture was added to 625 μL of media in each well to reach a final concentration of 35 mM Magnevist and 10 μg/mL GO. The cells were incubated with the mixture for […]. To harvest, cells were rinsed in-plate three times with 3000 μL PBS and trypsinized using 400 μL 0.25% TrypLE. After 5 minutes of incubation at 37° C., 600 μL of media was added to each well and mixed by a pipette to ensure that all cells were lifted into suspension. After combining all the wells into a 12 mL cell suspension, 3 aliquots of 25 μL each were obtained for cell counting by Guava. 175 μL of Guava ViaCount reagent was used for dilution. Additionally, 200 μL of the cell suspension was transferred to a 1.5-mL microcentrifuge tube, centrifuged at 1000 RPM for 5 min (Thermo Scientific, Model Legend Micro 21R), and re-suspended in 200 μL media to wash the cells. From the washed cell suspension, two aliquots of 25 μL each were used for cell counting by Guava and two aliquots of 25 μL each were used for Gd content analysis by ICP-MS. For the condition without GO co-incubation, the same procedures were followed except GO was replaced by Milli-Q water.
To create the cellular phantoms in agarose, a 1% media-agarose was prepared by mixing media and 2% low melting-point agarose (Life Technologies, Carlsbad, Calif.) in equal parts. At 7 T, the media-agrose has a T1 of 2952±152 ms and a T2 of 96±1 ms. In a 4 mL 15×45 mm glass vial, 2 mL of media-agarose was gelled at room temperature around a 5 mm OD NMR tube that was later removed to create a cylindrical bore. To fill the bore, the suspension of labeled cells was centrifuged at 1000 RPM for 5 minutes. After removing the supernatant, the cell pellet was re-suspended in media-agarose and further diluted to densities of 10,000, 5,000, 2,000, 500, and 100 cells/μL. 300 μL of each cell suspension was used to fill the bores in the 4 mL vials. After filling, the vials were cooled to 4° C. for 20 minutes to solidify the suspension. Approximately 3 mL of media was added on top of the media-agarose to completely fill the vial.
T1- and T2-weighted imaging were performed on a Bruker Pharmscan 7.05 T imaging spectrometer fitted with shielded gradient coils and a RF RES 300 1H 089/023 quadrature transceiver volume coil at 25° C. (Bruker BioSpin, Billerica, Mass.). Imaging was performed using a Rapid Acquisition with Refocused Echoes (RARE) pulse sequence. For T1-weighted imaging, the imaging parameters were TR=200 ms, TE=11.7 ms, NEX=1, FOV=21×21 mm^2, slice thickness=2 mm, and matrix size=256×256. For T2-weighted HDR, the imaging parameters were TR=5000 ms, TE=100 ms, NEX=1, FOV=15×15 mm^2, slice thickness=2 mm, and matrix size=256×256. The signal intensities of the acquired images were normalized such that the blank media-agarose has the same intensity across all images. Image processing was performed using ImageJ (NIH, Bethesda, Md.). T1 and T2-weighted images were processed separately.

HeLa cells [2] = assay: 24 hour cytotoxicity assay (Guava ViaCount); assay type: cell-based; conditions: for IC50: read-out: IC50 (viability)
Method: FIG. 11. 24 hour cytotoxicity assay using HeLa cells at increasing Magnevist and GO concentrations. […] The maximum GO dose required for cellular delivery enhancement is 20 μg/mL, or an order of magnitude below the highest test dose. The 150 nm GO was used for the study.
FIGS. 12A-B. Cytotoxicity of Magnevist. A) Viability of HeLa cells at increasing Magnevist concentration as measured by the Guava ViaCount Assay. Analysis includes floating cells at the end of the 24-hr incubation period. The fitted IC50 was 80 mM. […] Fitting was performed using GraphPad Prism software. All incubations were performed for 24 hours. Error bars show SD.
Cell counting was conducted using a Guava EasyCyte Mini Personal Cell Analyzer (EMD Millipore, Billerica, Mass.). After cell harvesting, an aliquot (50 μL) of the cell suspensions was mixed with Guava ViaCount reagent (150 μL) and allowed to stain at room temperature for at least 5 minutes. The dilution factor of 4 was determined based upon optimum machine performance (20-150 cells/μL). After vortexing for 10 sec, stained cells were counted using a Guava EasyCyte Mini Personal Cell Analyzer (PCA) using the ViaCount software module. For each sample, 1000 events were acquired. Gating of live/dead and cell/debris classifications were performed manually by the operator.

Diethylenetriaminepentaacetic acid gadolinium(III) dihydrogen salt hydrate [Molecule 11]
Improvement of labeling with GO over Magnevist alone (HeLa cells [1]; 35 mM Magnevist, 10 μg/mL GO): 57%
Cellular Gd(III) payload relative to Gd(III)-DNA gold nanoparticles, Gd(III)-labeled polymer-liposomes, gadonanotubes and gadofullerenols (HeLa cells [1]; GO co-incubation): 30-50 fold
Increase of MR sensitivity for labeled cells compared to Magnevist alone (HeLa cells [1]; GO co-incubation): ~10 fold
Labeling achieved in the imaging study (HeLa cells [1]; Magnevist alone (35 mM), without GO): 30 fmol Gd/cell
Enhancement by GO (HeLa cells [1]; imaging study, before centrifugation): 2.2 ×
Labeling achieved in the imaging study (HeLa cells [1]; with GO co-incubation (10 μg/mL), 35 mM Magnevist): 47 fmol Gd/cell
Sensitivity for labeled cells on T1-weighted MRI (HeLa cells [1]; with GO co-incubation (150 nm GO)): 500 cells/μL
Loading in the imaging study (HeLa cells [1]; with GO, before centrifugation): 153 fmol/cell
Sensitivity for labeled cells on T1-weighted MRI (HeLa cells [1]; without GO): 5000 cells/μL
Loading in the imaging study (HeLa cells [1]; without GO, before centrifugation): 69 fmol/cell
IC50 (HeLa cells [2]; 24 h, after in-plate washing by PBS, floating cells not included): 99 mM
IC50 (HeLa cells [2]; 24 h, analysis includes floating cells): 80 mM
Cytotoxicity (HeLa cells [2]; 24 h, up to 35 mM Magnevist and 250 μg/mL GO (150 nm GO)): No significant cytotoxicity
Cytotoxicity (HeLa cells [2]; Magnevist increased to 70 mM, with GO): synergistic cytotoxicity
